Test results as given in US7495027B2, “3-aryl-4-hydroxyfuranone compounds and the human and animal health use thereof” (Wyeth, priority 2003, dated 2009).
In brackets after ≈: the same amount, converted by molar mass. Where two headings read alike, the source gives them in different places.

Columns and labels:
[1] = biological target: E. coli Enopyruvyl-UPD-N-acetylglucosamine reductase, Mur B (Escherichia coli, UniProt P08373); assay: biochemical; settings: (E) E. coli enzyme; for IC50: read-out: MurB IC50 (converted)
Sequence of E. coli Enopyruvyl-UPD-N-acetylglucosamine reductase, Mur B (P08373 whole entry): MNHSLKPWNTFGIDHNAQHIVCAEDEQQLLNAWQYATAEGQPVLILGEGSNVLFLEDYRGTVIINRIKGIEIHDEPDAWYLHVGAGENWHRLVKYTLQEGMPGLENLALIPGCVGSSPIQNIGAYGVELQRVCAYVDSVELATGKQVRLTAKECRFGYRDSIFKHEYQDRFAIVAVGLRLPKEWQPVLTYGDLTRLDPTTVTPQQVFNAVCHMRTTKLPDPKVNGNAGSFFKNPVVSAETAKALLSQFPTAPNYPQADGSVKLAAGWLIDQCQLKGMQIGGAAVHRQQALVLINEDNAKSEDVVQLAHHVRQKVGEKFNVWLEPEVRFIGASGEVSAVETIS
Method: S. aureus and E. coli Enopyruvyl-UPD-N-acetylglucosamine reductase, Mur B
Preparation of Tris/BME buffer:
Dilute 17.5 uL of aqueous 5 mM BME (2-mercaptoethanol) to 50 mL with 50 mM Tris/HCl (pH 8.0).
(§1) Preparation of Enzyme Solution:
Dilute aqueous MurB stock solution (0.94 mg/mL) with 200 parts 50 mM Tris/2-BME buffer.
Synthesis of Substrate for MurB (MurA Product EP-UDP-GluNAc):
A mixture of 13 mg UDP-N-acetylglucosamine and 5.5 mg phosphoenolpyruvate are dissolved in 10 mL Tris/BME buffer forming 2 mM concentrations of each reagent in solution.
Preparation of Assay Buffer:
The assay buffer is prepared in water from reagents with the following final concentrations: 100 mM Tris/HCl (pH 8.0), 200 μM NADPH, 100 μM MurB substrate, 10 μM 2-mercaptoethanol, and 10 μM KCl.
Experiments are performed by adding 20 μL of a solution of test compound in a mixture of dimethylsulfoxide and water and 30 μL of enzyme solution to a well. After a pre-incubation period of 20 mins. at 23° C., 50 μL of Tris/BME buffer and 100 μL of assay buffer are added. […] Controls are performed using the same procedure and employing 20 μL of a blank dimethylsulfonide and solvent mixture in place of the test compound solution.
Using these values, the IC50 for each test compound is determined by linear regression analysis.

staphylococci = assay: Minimum inhibitory concentration, microdilution broth method, staphylococci; type: cell-based; settings: Mueller-Hinton broth, 18-22 hours at 35° C.; for MIC: Staphylococcus aureus
Method: (§2) Evaluation of the Minimum Inhibitory Concentration of Test Compounds Against A Variety of Bacterial Strains
(§3) In this evaluation the minimal inhibitory concentration (MIC) of test compounds against Gram positive and Gram negative bacteria is performed using the microdilution broth method as recommended by the National Committee for Clinical Laboratory Standards (Approved Standards M7-A5 2000). Mueller-Hinton broth is used for the enterobacteriaceae, staphylococci and enterococci. Streptococci are also tested in Mueller-Hinton broth supplemented with 5% horse blood (LHB). Test organisms include recent clinical isolates that are resistant to methicillin, penicillin and/or vancomycin. […].

Streptococci = assay: Minimum inhibitory concentration, microdilution broth method, streptococci; type: cell-based; settings: Mueller-Hinton broth with 5% horse blood, 18-22 hours at 35° C.; for MIC: S. pneumo GC 1894
Method: as §2, §3

enterococci = assay: Minimum inhibitory concentration, microdilution broth method, enterococci; type: cell-based; settings: Mueller-Hinton broth, 18-22 hours at 35° C.; for MIC: Enterococcus faecalis
Method: as §2, §3

[2] = biological target: E. coli Uridine-diphosphate-N-acetvimuramoyl: L-alanine lipase, MurC (Escherichia coli, UniProt P17952); assay: Inhibitory activity against MurC (E. coli); type: biochemical; settings: (E) E. coli enzyme; for IC50: read-out: MurC IC50 (converted)
Sequence of E. coli Uridine-diphosphate-N-acetvimuramoyl: L-alanine lipase, MurC (P17952 whole entry): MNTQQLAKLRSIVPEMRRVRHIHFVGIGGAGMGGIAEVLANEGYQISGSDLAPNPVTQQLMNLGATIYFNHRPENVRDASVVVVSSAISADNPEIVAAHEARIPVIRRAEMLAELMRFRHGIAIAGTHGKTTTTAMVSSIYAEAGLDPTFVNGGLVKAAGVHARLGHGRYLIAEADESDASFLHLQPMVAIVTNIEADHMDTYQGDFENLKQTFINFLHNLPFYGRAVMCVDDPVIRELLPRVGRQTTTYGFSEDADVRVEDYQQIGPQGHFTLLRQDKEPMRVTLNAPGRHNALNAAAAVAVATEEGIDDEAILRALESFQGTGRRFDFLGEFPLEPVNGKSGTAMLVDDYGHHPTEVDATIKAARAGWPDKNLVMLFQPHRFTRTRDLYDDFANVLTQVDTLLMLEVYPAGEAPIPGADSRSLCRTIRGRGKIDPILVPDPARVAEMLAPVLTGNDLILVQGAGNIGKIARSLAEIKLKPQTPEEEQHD
Method: S. aureus and E. coli Uridine-diphosphate-N-acetvimuramoyl: L-alanine lipase, MurC
The buffer is prepared from aqueous reagents with the following final concentrations: 83 mM Tris/HCl (pH 8.0), 50 mM MgC12, and 2 mM ATP.
as §1
A 1 mg/mL stock solution of MurC is prepared in a buffer consisting of 20 mM Tris/HCl (pH 8.5) with 2.5 μM BME. The stock solution is further diluted with the buffer to give a final enzyme concentration of 100 μg/mL for the E. coli stock solution and 70 μg/mL for the S. aureus stock solution.
(§4) Preparation of Test Compound Solutions:
(§5) All test solutions are prepared in DMSO as 10 mg/mL, then diluted with 50 mM Tris/HCl (pH 8.5) to 100 μg/mL.
(§6) Preparation of Stop Solution:
The stop solution is prepared by stirring 1 part 4.2% ammonium molydbate in 4N HCl with 2 parts 0.045% malachite green for 30 min.
In this evaluation, the inhibitory activity of a test compound against MurC, the enzyme which catalyzes the third step of bacterial cell wall bioxynthesis is determined. Experiments are performed by adding 2.5 μl buffer, 2.5 μl 0.5M NH4SO2, 5 μl 2 μM L-Ala, 5 μl enzyme solution and 6.5 μl test compound solution to each well in a 96-well microplate. After a pre-incubation period of 10 mins. at 23° C., 3.75 μl of a 0.75 μM solution of UDP-MurNac is added to each well. Following an incubation period of 10 mins. at 37° C., 210 μl stop solution and 50 μl of a 34% w/v sodium citrate solution are added and color is allowed to develop for 10 mins. at 23° C. (Lanzetta et al., Analytical Biochemistry, 1979, 95) Optical density readings are taken at 660 nm using a Molecular Devices Spectra Max 250 with Soft Max software. Controls are performed using the same procedure and omitting the addition of UDP-MurNac.
Using these values the IC50 is determined by linear regression analysis.

[3] = biological target: T1, S. aureus Uridine-diphosphate-N-acetylmuramoyl-L-alanine: D-glutamate liease, MurD (Staphylococcus aureus, UniProt Q2FZ92); assay: biochemical; settings: (S) S. aureus enzyme
T1 sequence (Q2FZ92 1-449): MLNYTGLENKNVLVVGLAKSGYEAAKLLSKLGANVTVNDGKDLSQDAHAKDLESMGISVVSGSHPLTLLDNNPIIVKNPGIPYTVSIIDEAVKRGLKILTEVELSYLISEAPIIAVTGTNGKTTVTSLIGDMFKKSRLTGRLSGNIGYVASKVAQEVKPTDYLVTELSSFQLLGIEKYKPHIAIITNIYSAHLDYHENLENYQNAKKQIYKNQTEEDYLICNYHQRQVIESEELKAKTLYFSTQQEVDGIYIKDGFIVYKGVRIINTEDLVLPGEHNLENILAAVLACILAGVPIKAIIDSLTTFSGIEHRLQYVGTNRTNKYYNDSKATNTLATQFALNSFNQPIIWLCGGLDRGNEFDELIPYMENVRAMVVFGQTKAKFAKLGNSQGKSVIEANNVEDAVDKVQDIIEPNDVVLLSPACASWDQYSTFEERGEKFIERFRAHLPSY
Method: (§7) S. aureus and E. coli Uridine-diphosphate-N-acetylmuramoyl-L-alanine: D-glutamate liease, MurD
as §1, §4, §5, §6
(§8) In this evaluation, the inhibitory activity of a test compound against MurD, the enzyme which catalyzes the fourth step of bacterial cell wall biosynthesis is determined.

[4] = biological target: E. coli Uridine-diphosphate-N-acetylmuramoyl-L-alanine: D-glutamate liease, MurD (Escherichia coli, UniProt P14900); assay: biochemical; settings: (E) E. coli enzyme
Sequence of E. coli Uridine-diphosphate-N-acetylmuramoyl-L-alanine: D-glutamate liease, MurD (P14900 whole entry): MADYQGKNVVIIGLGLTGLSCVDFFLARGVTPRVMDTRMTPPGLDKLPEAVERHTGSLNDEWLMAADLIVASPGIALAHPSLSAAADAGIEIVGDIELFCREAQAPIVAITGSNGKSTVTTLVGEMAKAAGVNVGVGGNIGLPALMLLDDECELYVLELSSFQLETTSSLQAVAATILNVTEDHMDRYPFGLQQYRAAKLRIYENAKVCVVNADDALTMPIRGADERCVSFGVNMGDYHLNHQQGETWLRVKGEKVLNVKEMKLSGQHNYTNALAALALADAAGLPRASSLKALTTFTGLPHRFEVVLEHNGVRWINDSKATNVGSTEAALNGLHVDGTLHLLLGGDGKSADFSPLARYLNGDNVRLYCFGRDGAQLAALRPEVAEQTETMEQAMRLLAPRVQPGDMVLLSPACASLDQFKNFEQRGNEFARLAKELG
Method: as §7
The buffer is prepared from aqueous reagents with the following final concentrations: 83 mM Tris/HCl (pH 8.0), 50 mM MgCl2, and 2 mM ATP.
as §1, §4, §5, §6, §8

[5] = system: Trichostrongylus columbriformis; assay: In vivo efficacy against T. colubriformis in infected gerbils; settings: gerbils infected with T. colubriformis, single oral dose of 50 mg/kg by gavage, worm counts four days post-treatment, % mortality as compared to negative control
Outline: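 Gerbils infected with ~800 L3/mL larvae were treated one week later by gavage with a single 50 mg/kg oral dose in PEG 400:DMSO (1:2 v/v), 3 animals per group. Necropsy four days post-treatment, with worms counted under stereoscopes.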

C. elegans = assay: Efficacy against nematodes (C. elegans motility rating); design: key: 0: no effect; 7: reduced movement in 24 h; 8: dead in 24 h; 9: dead in 4 h; settings: dose 150 ppm, observations at 4 h and 24 h postimmersion
Outline: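 Mixed-stage C. elegans (~50 per well, L1 to adult) in M9 buffer exposed to test compound at 100 ppm, 150 ppm or 200 μM final. Motility of larvae and adults scored under dissecting microscope at 4 h and 24 h.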

[6] = S. aureus GC 1131, read-out: MIC S. aureus GC 1131
[7] = S. aureus GC 4543, read-out: MIC S. aureus GC 4543
[8] = E. faecalis GC 2242, read-out: MIC E. faecalis GC 2242
[9] = E. faecalis GC 4555, read-out: MIC E. faecalis GC 4555

O=C1O/C(=C\c2ccc3ccccc3c2)C(O)=C1c1cccc(C(F)(F)F)c1 [Example 8]
MurB IC50 [1]: 11 (E) μg/mL
MIC (staphylococci; [6]): 8 µg/mL (≈ 20.9 µM)
MIC (staphylococci; [7]): 8 µg/mL (≈ 20.9 µM)
MIC (Streptococci): 0.25 µg/mL (≈ 0.654 µM)
MIC (enterococci; [8]): 4 µg/mL (≈ 10.5 µM)
MIC (enterococci; [9]): 16 µg/mL (≈ 41.8 µM)
MurC IC50 [2]: 6 (E) μg/mL

O=C1O/C(=C\c2ccc(-c3ccccc3)cc2)C(O)=C1c1ccc2ccccc2c1 [Example 45]
MurB IC50 [1]: 2 (E) μg/mL
IC50 [3]: > 64 µM
MIC (staphylococci; [6]): 16 µg/mL (≈ 41 µM)
MIC (staphylococci; [7]): 4 µg/mL (≈ 10.2 µM)
MIC (Streptococci): 2 µg/mL (≈ 5.12 µM)
MIC (enterococci; [8]): 4 µg/mL (≈ 10.2 µM)
MIC (enterococci; [9]): 8 µg/mL (≈ 20.5 µM)
MurC IC50 [2]: 10 (E) μg/mL

O=C1O/C(=C\c2cccc(C(F)(F)F)c2)C(O)=C1c1cccc2ccccc12 [Example 48]
MIC (staphylococci; [6]): 32 µg/mL (≈ 83.7 µM)
MIC (staphylococci; [7]): 64 µg/mL (≈ 167 µM)
MIC (Streptococci): 8 µg/mL (≈ 20.9 µM)
MIC (enterococci; [8]): 32 µg/mL (≈ 83.7 µM)
MIC (enterococci; [9]): > 128 µg/mL
MurC IC50 [2]: 13 (E) μg/mL

O=C1O/C(=C\c2cc(F)cc(C(F)(F)F)c2)C(O)=C1c1cccc(-c2ccccc2)c1 [Example 109]
IC50 [1]: 9.38 µM
IC50 [4]: > 58.6 µM
MIC (staphylococci; [6]): 2 µg/mL (≈ 4.69 µM)
MIC (staphylococci; [7]): 2 µg/mL (≈ 4.69 µM)
MIC (Streptococci): 0.25 µg/mL (≈ 0.586 µM)
MIC (enterococci; [8]): 1 µg/mL (≈ 2.35 µM)
MIC (enterococci; [9]): 4 µg/mL (≈ 9.38 µM)
IC50 [2]: 23.5 µM

O=C1O/C(=C\c2cc(F)cc(C(F)(F)F)c2)C(O)=C1c1cccc(-c2ccccc2)c1 [Example 112]
IC50 [1]: 11.7 µM
IC50 [4]: > 58.6 µM
MIC S. aureus GC 1131 (staphylococci; S. aureus GC 1131): 2 µg/mL (≈ 4.69 µM)
MIC S. aureus GC 4543 (staphylococci; S. aureus GC 4543): 4 µg/mL (≈ 9.38 µM)
MIC S. pneumo GC 1894 (Streptococci): 0.25 µg/mL (≈ 0.586 µM)
MIC E. faecalis GC 2242 (enterococci; E. faecalis GC 2242): 2 µg/mL (≈ 4.69 µM)
MIC E. faecalis GC 4555 (enterococci; E. faecalis GC 4555): 8 µg/mL (≈ 18.8 µM)
IC50 [2]: 23.5 µM

O=C1O/C(=C\c2ccc(Cl)cc2)C(O)=C1c1ccc(-c2ccccc2)cc1 [Example 139]
IC50 [1]: 16 µM
MIC (staphylococci; [6]): 16 µg/mL (≈ 42.7 µM)
MIC (staphylococci; [7]): 16 µg/mL (≈ 42.7 µM)
MIC (Streptococci): 1 µg/mL (≈ 2.67 µM)
MIC (enterococci; [8]): 4 µg/mL (≈ 10.7 µM)
MIC (enterococci; [9]): 8 µg/mL (≈ 21.3 µM)
MurC IC50 [2]: 16 (E) μg/mL

COc1ccc(/C=C2\OC(=O)C(c3cccc(C(F)(F)F)c3)=C2O)cc1 [R=H; R1=3-CF3—C6H4; R2=4-OCH3—C6H4]
Mortality [5]: 3.10%
Rating (C. elegans): 9

CC(=O)c1cccc(C2=C(O)C(=Cc3cccc4ccccc34)OC2=O)c1 [R=H; R1=3-COCH3—C6H4; R2=1-naphthyl]
Mortality [5]: 10.70%
Rating (C. elegans): 8

O=C1OC(=Cc2ccc(-c3ccccc3)cc2)C(O)=C1c1cccc(Cl)c1 [R=H; R1=3-Cl—C6H4; R2=4-biphenyl]
Mortality [5]: 19.40%
Rating (C. elegans): 9

N#Cc1ccc(C2=C(O)C(=Cc3ccc(-c4ccc(C#N)cc4)cc3)OC2=O)cc1 [R=H; R1=4-CN—C6H4*; R2=4-(4′-CN-biphenyl)]
Mortality [5]: 88.07%
Rating (C. elegans): 9

N#Cc1ccc(C2=C(O)C(=Cc3ccccc3C(F)(F)F)OC2=O)cc1 [R=H; R1=4-CN—C6H4; R2=2-CF3—C6H4]
Mortality [5]: 69.78%
Rating (C. elegans): 7

N#Cc1ccc(-c2ccc(/C=C3\OC(=O)C(c4ccc(Cl)cc4)=C3O)cc2)cc1 [R=H; R1=4-Cl—C6H4*; R2=4-(4′-CN-biphenyl)]
Mortality ([5]; 50 mg/kg): 23.80%
Rating (C. elegans): 9

O=C1O/C(=C\c2cccc3ccccc23)C(O)=C1c1ccc(Cl)cc1 [R=H; R1=4-Cl—C6H4; R2=1-naphthyl]
Mortality [5]: 0.00%
Rating (C. elegans): 9

O=C1OC(=Cc2ccc3ccccc3c2)C(O)=C1c1ccc(Cl)cc1 [R=H; R1=4-Cl—C6H4; R2=2-naphthyl]
Mortality [5]: 52.80%
Rating (C. elegans): 9

COc1ccc(C=C2OC(=O)C(c3ccc(Cl)cc3)=C2O)cc1 [R=H; R1=4-Cl—C6H4; R2=4-OCH3—C6H4]
Mortality [5]: 7.10%
Rating (C. elegans): 0

COc1ccc(C2=C(O)C(=Cc3ccc(-c4ccccc4)cc3)OC2=O)cc1 [R=H; R1=4-OCH3—C6H4; R2=4-biphenyl]
Mortality [5]: 44.90%
Rating (C. elegans): 9

O=C1O/C(=C\c2ccccc2C(F)(F)F)C(O)=C1c1ccc(-c2ccccc2)cc1 [R=H; R1=4-biphenyl; R2=2-CF3—C6H4]
Mortality [5]: 23.90%
Rating (C. elegans): 9

O=C1OC(=Cc2ccc(C(F)(F)F)cc2)C(O)=C1c1ccc(-c2ccccc2)cc1 [R=H; R1=4-biphenyl; R2=4-CF3—C6H4]
Mortality [5]: 0.00%
Rating (C. elegans): 9

O=C1O/C(=C\c2ccc(Cl)cc2)C(O)=C1c1ccc(-c2ccccc2)cc1 [R=H; R1=4-biphenyl; R2=4-Cl—C6H4]
Mortality [5]: 44.70%
Rating (C. elegans): 9
